For assay [1], the target named is Bone morphogenetic protein receptor type-1B (Homo sapiens, UniProt O00238). Nature of the assay: Selectivity interaction (LanthaScreen Eu Kinase Binding Assay) EUB0001632a BMPR1B. The note with it: at 10 µM.
In assay [2] the target is Cyclin-dependent kinase 16 (Homo sapiens) (UniProt Q00536). Kind of assay: Selectivity interaction (Kinase panel (KiNativ target engagement assay in Jurkat cells)) EUB0001635a CDK16. It is filed as cell-based. The note with it: Selectivity number of off-targets 0.0, Selectivity number of targets 233.0, Source Knowledge https://www.sciencedirect.com/science/article/pii/S2451945619300674?via%3Dihub, at 1 µM.

For assay [3], the system named is Tyrosine-protein kinase ABL1 (Homo sapiens), P00519 [Q252H]. Kind of assay: Selectivity interaction (KinomeScan (DiscoverX)) EUB0000607a ABL1. The note with it: at 10 µM.
The target of assay [4] is T1, Muscle, skeletal receptor tyrosine-protein kinase (Homo sapiens) (UniProt O15146).
T1 sequence (whole entry): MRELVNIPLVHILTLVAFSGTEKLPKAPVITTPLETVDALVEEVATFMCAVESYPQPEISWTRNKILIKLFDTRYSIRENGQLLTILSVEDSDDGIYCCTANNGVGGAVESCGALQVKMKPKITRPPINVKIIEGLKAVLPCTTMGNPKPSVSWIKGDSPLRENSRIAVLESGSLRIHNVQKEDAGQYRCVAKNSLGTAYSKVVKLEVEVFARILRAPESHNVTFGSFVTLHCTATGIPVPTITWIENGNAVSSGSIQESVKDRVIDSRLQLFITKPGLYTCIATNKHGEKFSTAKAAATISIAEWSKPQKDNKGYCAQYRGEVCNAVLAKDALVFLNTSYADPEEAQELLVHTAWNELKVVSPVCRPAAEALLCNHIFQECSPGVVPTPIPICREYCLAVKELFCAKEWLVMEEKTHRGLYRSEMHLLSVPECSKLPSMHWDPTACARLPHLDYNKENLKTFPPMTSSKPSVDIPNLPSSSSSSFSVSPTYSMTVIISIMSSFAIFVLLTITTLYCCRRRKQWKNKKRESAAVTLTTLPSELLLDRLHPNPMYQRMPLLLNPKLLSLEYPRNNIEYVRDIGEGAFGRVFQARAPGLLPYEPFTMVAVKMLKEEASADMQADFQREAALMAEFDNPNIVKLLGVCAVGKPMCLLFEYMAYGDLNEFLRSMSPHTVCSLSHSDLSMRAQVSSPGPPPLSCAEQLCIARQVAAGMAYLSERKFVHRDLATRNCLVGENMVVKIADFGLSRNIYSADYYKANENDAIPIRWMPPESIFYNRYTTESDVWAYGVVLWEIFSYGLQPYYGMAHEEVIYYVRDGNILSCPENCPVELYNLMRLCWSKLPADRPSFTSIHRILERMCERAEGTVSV
Nature of the assay: Selectivity interaction (SelectScreen profiling (Invitrogen)) EUB0000607a MUSK. The note with it: at 2 µM.

In assay [5] the target is Calcium/calmodulin-dependent protein kinase type II subunit alpha (Homo sapiens, UniProt Q9UQM7). Nature of the assay: Selectivity interaction (KinomeScan (DiscoverX)) EUB0000666a CAMK2A. The note with it: at 10 µM.
Assay [6] deals with Cyclin-dependent kinase 19 (Homo sapiens) (UniProt Q9BWU1). Kind of assay: Selectivity interaction (KinomeScan (DiscoverX)) EUB0001079a CDK19. The note with it: at 1 µM.
Assay [7] has as its target Mitogen-activated protein kinase 1 (Homo sapiens, UniProt P28482). Kind of assay: Selectivity interaction (ActivX KiNativ screen (ex vivo kinase selectivity in human PBMCs)) EUB0001619a MAPK1. It is filed as cell-based. The note with it: PBMC, at 1 µM.
For assay [8], the target named is T2, Serine/threonine-protein kinase 3 (Homo sapiens) (UniProt Q13188).
T2 sequence (whole entry): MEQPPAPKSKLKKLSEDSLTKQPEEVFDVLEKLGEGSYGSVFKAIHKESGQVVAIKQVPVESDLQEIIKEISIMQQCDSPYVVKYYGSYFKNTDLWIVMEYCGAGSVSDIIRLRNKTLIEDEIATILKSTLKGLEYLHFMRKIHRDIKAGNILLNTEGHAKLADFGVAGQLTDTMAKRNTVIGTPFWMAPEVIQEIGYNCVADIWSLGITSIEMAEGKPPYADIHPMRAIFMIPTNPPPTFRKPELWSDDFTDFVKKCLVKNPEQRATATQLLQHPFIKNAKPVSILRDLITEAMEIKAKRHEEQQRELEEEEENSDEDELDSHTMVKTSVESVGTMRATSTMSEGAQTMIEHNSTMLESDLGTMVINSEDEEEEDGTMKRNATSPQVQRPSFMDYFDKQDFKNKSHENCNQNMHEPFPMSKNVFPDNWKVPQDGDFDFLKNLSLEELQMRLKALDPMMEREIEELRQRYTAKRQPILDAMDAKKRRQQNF
Nature of the assay: Selectivity interaction (ActivX KiNativ screen (kinase selectivity in THP-1 cell lysates)) EUB0000639a STK3. It is filed as subcellular. The note with it: lysate, at 1 µM.

Assay [9] concerns the target Tyrosine-protein kinase Srms (Homo sapiens) (UniProt Q9H3Y6). Nature of the assay: Selectivity interaction (KinomeScan (DiscoverX)) EUB0000695a SRMS. The note with it: at 100 nM.
For assay [10], the target named is Serine/threonine-protein kinase PRP4 homolog (Homo sapiens) (UniProt Q13523). Kind of assay: Selectivity interaction (KinomeScan (DiscoverX)) EUB0000695a PRPF4B. The note with it: at 100 nM.
The target in assay [11] is Serine/threonine-protein kinase PAK 2 (Homo sapiens) (UniProt Q13177). Kind of assay: Selectivity interaction (ProQinase) EUB0000171b PAK2.
Sequence of Serine/threonine-protein kinase PAK 2 (Homo sapiens) (Q13177 whole entry): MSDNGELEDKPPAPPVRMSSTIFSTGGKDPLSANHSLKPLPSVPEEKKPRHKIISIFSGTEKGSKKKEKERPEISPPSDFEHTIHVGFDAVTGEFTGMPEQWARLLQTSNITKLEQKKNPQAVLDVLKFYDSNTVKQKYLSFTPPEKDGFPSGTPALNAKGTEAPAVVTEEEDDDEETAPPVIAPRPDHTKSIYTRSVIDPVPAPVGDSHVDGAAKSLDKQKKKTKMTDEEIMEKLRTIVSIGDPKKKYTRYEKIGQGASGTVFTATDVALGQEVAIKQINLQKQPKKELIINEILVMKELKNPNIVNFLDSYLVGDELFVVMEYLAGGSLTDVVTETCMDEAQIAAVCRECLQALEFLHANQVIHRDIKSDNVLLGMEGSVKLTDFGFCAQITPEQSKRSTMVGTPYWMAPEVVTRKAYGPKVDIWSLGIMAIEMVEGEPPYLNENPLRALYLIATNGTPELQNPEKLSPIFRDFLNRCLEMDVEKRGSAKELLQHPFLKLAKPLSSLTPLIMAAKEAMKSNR
Assay [12] has as its system Epidermal growth factor receptor (Homo sapiens), P00533 [UNDEFINED MUTATION]. Nature of the assay: Selectivity interaction (KinomeScan (DiscoverX)) EUB0000045b EGFR. The note with it: at 1 µM.
The test system of assay [13] is Mast/stem cell growth factor receptor Kit (Homo sapiens), P10721 [V559D]. Nature of the assay: (§1) Selectivity interaction (KinomeScan (DiscoverX)) EUB0000595a KIT. The note with it: at 10 µM.
Assay [14] deals with Mast/stem cell growth factor receptor Kit (Homo sapiens), P10721 [D816V]. The assay is described as §1. The note with it: at 10 µM.
The test system of assay [15] is Mast/stem cell growth factor receptor Kit (Homo sapiens), P10721 [L576P]. The description is as §1. The note with it: at 10 µM.
Sequence of Mast/stem cell growth factor receptor Kit (Homo sapiens), P10721 [L576P] (P10721 whole entry L576P): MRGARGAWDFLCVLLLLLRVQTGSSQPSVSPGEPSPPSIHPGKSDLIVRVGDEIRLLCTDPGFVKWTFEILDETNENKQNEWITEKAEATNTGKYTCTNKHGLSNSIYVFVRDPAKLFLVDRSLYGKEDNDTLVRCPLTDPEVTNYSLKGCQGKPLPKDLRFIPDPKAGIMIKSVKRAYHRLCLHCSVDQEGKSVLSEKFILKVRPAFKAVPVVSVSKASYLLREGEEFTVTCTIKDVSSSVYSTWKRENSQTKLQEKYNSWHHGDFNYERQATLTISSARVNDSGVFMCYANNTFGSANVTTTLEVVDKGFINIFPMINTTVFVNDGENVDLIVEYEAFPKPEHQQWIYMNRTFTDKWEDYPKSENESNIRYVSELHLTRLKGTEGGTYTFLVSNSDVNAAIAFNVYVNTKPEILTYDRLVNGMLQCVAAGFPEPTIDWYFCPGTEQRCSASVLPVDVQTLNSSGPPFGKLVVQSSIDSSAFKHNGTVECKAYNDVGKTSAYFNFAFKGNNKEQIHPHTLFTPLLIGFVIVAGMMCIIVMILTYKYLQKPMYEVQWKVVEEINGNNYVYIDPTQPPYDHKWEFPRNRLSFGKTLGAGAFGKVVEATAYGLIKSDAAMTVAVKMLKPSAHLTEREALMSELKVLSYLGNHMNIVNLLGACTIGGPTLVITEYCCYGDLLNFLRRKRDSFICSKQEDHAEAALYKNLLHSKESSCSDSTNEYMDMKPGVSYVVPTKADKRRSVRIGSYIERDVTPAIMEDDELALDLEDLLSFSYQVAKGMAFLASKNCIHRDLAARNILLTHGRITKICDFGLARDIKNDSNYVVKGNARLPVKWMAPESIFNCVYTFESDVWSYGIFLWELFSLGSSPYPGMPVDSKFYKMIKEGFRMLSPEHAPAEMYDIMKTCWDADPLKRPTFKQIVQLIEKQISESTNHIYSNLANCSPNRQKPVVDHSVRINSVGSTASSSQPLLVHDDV
In assay [16] the test system is Mast/stem cell growth factor receptor Kit (Homo sapiens), P10721 [V559D,V654A]. Described as §1. The note with it: at 10 µM.
Assay [17] concerns Mast/stem cell growth factor receptor Kit (Homo sapiens), P10721 [V559D,T670I]. Described as §1. The note with it: at 10 µM.
Sequence of Mast/stem cell growth factor receptor Kit (Homo sapiens), P10721 [V559D,T670I] (P10721 whole entry V559D/T670I): as the sequence (P10721 whole entry L576P) above, with V559D, P576L, T670I counted along it
The test system of assay [18] is Mast/stem cell growth factor receptor Kit (Homo sapiens), P10721 [D816H]. Described as §1. The note with it: at 10 µM.
Sequence of Mast/stem cell growth factor receptor Kit (Homo sapiens), P10721 [D816H] (P10721 whole entry D816H): as the sequence (P10721 whole entry L576P) above, with P576L, D816H counted along it

Sequence of Epidermal growth factor receptor (Homo sapiens), P00533 [UNDEFINED MUTATION] (P00533 whole entry, looked up, stated change not applied): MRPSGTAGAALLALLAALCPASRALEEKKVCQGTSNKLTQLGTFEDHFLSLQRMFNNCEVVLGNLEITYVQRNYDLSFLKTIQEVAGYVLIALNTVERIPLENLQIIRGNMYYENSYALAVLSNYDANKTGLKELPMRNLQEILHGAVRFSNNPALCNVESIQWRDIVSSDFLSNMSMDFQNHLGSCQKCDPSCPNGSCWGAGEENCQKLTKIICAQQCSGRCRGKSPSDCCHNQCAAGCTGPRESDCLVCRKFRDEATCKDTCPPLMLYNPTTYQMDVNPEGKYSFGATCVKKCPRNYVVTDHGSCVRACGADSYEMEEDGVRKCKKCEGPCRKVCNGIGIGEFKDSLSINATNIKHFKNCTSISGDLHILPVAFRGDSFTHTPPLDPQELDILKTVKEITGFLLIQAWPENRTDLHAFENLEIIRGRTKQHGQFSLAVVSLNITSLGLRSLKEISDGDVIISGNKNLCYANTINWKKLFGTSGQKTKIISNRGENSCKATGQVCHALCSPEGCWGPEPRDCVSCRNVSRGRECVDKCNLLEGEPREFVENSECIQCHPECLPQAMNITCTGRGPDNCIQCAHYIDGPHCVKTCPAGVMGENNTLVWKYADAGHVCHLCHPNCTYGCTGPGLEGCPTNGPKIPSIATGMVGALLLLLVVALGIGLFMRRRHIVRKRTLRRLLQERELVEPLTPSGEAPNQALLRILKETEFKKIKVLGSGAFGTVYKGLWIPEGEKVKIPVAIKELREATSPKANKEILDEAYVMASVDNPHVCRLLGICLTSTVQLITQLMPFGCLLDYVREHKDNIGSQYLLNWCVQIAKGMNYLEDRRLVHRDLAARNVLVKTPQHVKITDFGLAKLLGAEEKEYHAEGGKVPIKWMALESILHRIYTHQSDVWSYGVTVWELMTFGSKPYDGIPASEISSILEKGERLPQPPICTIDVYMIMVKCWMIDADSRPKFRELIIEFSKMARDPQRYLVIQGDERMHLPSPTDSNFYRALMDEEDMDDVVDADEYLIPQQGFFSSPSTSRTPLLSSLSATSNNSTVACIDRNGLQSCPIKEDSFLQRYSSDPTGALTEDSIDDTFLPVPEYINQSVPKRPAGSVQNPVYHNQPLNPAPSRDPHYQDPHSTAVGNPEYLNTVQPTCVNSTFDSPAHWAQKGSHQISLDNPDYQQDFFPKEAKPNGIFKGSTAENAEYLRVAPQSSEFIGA
Sequence of Mitogen-activated protein kinase 1 (P28482 whole entry): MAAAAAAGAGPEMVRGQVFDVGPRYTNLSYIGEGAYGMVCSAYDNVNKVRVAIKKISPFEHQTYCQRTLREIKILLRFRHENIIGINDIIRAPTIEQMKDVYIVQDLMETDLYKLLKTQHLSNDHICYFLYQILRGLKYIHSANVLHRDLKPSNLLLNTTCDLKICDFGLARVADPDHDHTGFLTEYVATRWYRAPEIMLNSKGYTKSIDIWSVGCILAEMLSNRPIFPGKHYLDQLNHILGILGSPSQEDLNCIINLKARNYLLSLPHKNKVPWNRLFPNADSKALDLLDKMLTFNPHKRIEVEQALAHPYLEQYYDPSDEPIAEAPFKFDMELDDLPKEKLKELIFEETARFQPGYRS

As to `Cn1cc(-n2cnc3c(NCc4nc5cc(Cl)c(Cl)cc5[nH]4)nc(N4CCOCC4)nc32)cn1`, the % of inhibition in assay [1] is -57.7%. For `C=CC(=O)Nc1ccc(C(=O)Nc2[nH]nc3c2CN(C(=O)N[C@H](CN(C)C)c2ccccc2)C3(C)C)cc1`, in assay [2], the % of engagement came to 2.3%. In turn, `CNC(=O)Nc1ccc(-c2nc(N3CC4CCC(C3)O4)c3cnn(C4CCC5(CC4)OCCO5)c3n2)cc1` displayed a % of control in assay [3] of 100%. In assay [4], the % of inhibition amounted to 15%. For the compound `O=C(NOC[C@H](O)CO)c1ccc(F)c(F)c1Nc1ccc(I)cc1F`, in assay [5], the % of control came out at 100%.

`Nc1cnc(N2CCc3cc(S(=O)(=O)Nc4c(F)cc(Cl)cc4F)cc(N4CCCC4=O)c32)nc1` [TP-020n] had a % of control in [6] of 100%. Consider `N#Cc1cccc(-c2c[nH]c3ncnc(N4CCOCC4)c23)c1`, for which the % of inhibition in [7] is 3%.

In the case of `CC[C@@H]1[C@H](F)C(=O)N[C@@H]1COc1nccc2cc(C(N)=O)c(OC)cc12` [ZIMLOVISERTIB], the % of inhibition in [8] is -8%. Regarding `Cc1cc(F)c(C(=O)Nc2cccc(-c3nncn3C(C)C)n2)cc1-n1cnc(C2CC2)c1`, the % of control was found to be 100% in assay [9] and 81% in [10]. `C=CC(=O)Nc1cccc(C(=O)Nc2ccc(Nc3cc(-c4[nH]c(SC)nc4C)ccn3)cc2)c1`: the % of control in [11] (at 1 µM) is 99%; in assay [11] (at 5 µM), 86%. Turning to `C=CC(=O)Nc1cc(-n2c(=O)ccc3cnc4ccc(-c5ccc(NS(C)(=O)=O)cc5)cc4c32)ccc1C`, the % of control in [12] worked out at 89%. Consider `COCC(=O)NC/C=C/c1ccc2ncnc(Nc3ccc(Oc4ccc(C)nc4)c(C)c3)c2c1` [CP-724714], for which the % of control in [13] came to 17%; in assay [14] it was 89%; in [15], 54%; in assay [16], 88%; in [17] it was 100%; in assay [18] it was 100%.

Values taken from ChEMBL document CHEMBL5465560, “Selectivity Literature for EUbOPEN Chemogenomic Library” (2024).
